# Measured values: patent publication US20030072726A1, “Skin lightening agents” (priority 1999, published 2003)
# Where two headings read alike, the source gives them in different places.
# Columns and labels:
# [1] = tested on: B16-F1 cells; test: Melanogenesis inhibition (skin lightening) assay in cultured melanocyte cells, secreted melanin OD405; type: cell-based; design: Melanogenesis Inhibition Activity: scale not given here; details: for Melanogenesis Inhibition Activity: B16-F1 cells, 96 hours
# Experimental: These were conducted using cultured melanocyte cells exposed to dilutions of the best materials, and compared with kojic acid, a brown skin lightener. The degree of melanin production was inversely proportional to the skin lightener activity. Any cytotoxic effect of the test materials is reflected in a decrease in melanin formation. Each 96 well assay plate included a solvent control and a blank control. […] When the cell cultures were 50 to 80% confluent, the growth medium was removed from the flasks and the cultures rinsed with 10 ml of HBSS. 2 ml of trypsin/EDTA solution was added and the flasks were incubated at 37° C.+/−1° C. for 2 to 5 minutes. When the cells started to dislodge, the flask was rapped sharply against the palm of the hand and approximately 5 ml of assay medium added to neutralise the trypsin. The concentration of cells was determined by counting an aliquot of the stock cell suspension in a haemocytometer. A seeding suspension of 5×10^4 cells/ml was prepared in assay medium. One hundred microlitres of the seeding cell suspension was added to the appropriate wells on each 96 well plate. One hundred microlitres of growth medium was added to the outer wells to maintain humidity. The cells were incubated at 37+/−1° C. in a humidified atmosphere containing 5+/−1% CO2 in air for 24 hours. Based on the information available for the test article, eight decreasing doses were selected and used in the assay. […] In the case of the mixture of protocatechuic acid and arbutin, a 1 to 1 w/w mixture of each was used in each assay with the concentration of each in the highest dose assay being 2.5 mg/ml, and then pro rata in the dilutions assayed in the other 7 assays. […] The test article and positive control was tested by treating six wells per dilution of B16-F1 cells seeded approximately 24 hours earlier. Prior to treatment the medium was removed, and 200 μl of the pre-warmed (37 +/−1° C.) test article dilutions, positive control dilutions and solvent control, were added to the appropriate wells. All test article concentrations were dosed into a single outer well (200 μl) of the corresponding plate to serve as a turbidity control. The remaining wells around the edge of the plate, designated as blanks, received 200 μl of assay medium prior to incubation. Following dosing, the plates were incubated at 37+/−1° C. for 96 hours +/−2 hours. After exposure, 150 μl of each treatment solution (containing any secreted melanin) was removed and transferred to the corresponding wells of a new 96 well plate (melanin production plate). Turbidity controls were also transferred. The absorbance of the melanin present in the melanin production plates was measured at 405 nm (OD405) with an Anthos 2010™microplate reader. The mean of the six OD405 values for each concentration of test article and positive control was calculated. The turbidity control values were subtracted to obtain a correct OD405 value. The mean of the six OD405 values for the corresponding negative or solvent control were calculated by subtracting the blank control value. The corrected OD405 values of the test article or positive control was divided by the corrected OD405 value for the negative or solvent control to obtain a melanin production ratio.
# [2] = Solubilities of compounds of the invention; type: physicochemical
# [3] = Taste, odour and colour of compounds of the invention; type: physicochemical; details: determined at effective concentrations
# [4] = ethylene glycol, organic solvent or mixture, read-out: Solubility Ethylene Clycol
# [5] = aqueous buffer, water, pH 7.0, read-out: Solubility Water (pH 7.0)
# [6] = ethanol, organic solvent or mixture, read-out: Solubility Ethanol
# [7] = oil, oil or lipid, read-out: Solubility Oil
Structure (SMILES),Melanogenesis Inhibition Activity ([1]; 0.015 mg/ml),Melanogenesis Inhibition Activity ([1]; 0.05 mg/ml),Melanogenesis Inhibition Activity ([1]; 0.15 mg/ml),Melanogenesis Inhibition Activity ([1]; 0.5 mg/ml),Melanogenesis Inhibition Activity ([1]; 1.5 mg/ml),Melanogenesis Inhibition Activity ([1]; 5 mg/ml),Melanogenesis Inhibition Activity ([1]; 15 mg/ml),"solubility [2, 4]",Taste/Odour [3],Colour (Solution in Ethanol) [3],skin lightening effect when used together with another skin lightening agent ([1]; arbutin used together with protocatechuic acid),"solubility [2, 5]","solubility [2, 6]","solubility [2, 7]"
"OC[C@H]1O[C@@H](Oc2ccc(O)cc2)[C@H](O)[C@@H](O)[C@@H]1O [Arbutin, reference compound]",0,1,4,11,17,14,11,,,,,,,
"CCc1ccc(O)c(OC)c1 [Ethylguaiacol, 4-Ethyl-2-methoxyphenol]",2,8,14,17,0,0,0,250 mg/mL,Smoky,Colourless,,,,
"O=c1cc(CO)occ1O [Kojic acid, reference compound]",0,0,0,2,57,170,255,,,,,,,
"O=C(O)c1ccc(O)c(O)c1 [Protocatechuic acid, 3,4-Dihydroxybenzoic acid]",0.5,2,1,3,7,0,0,250 mg/mL,None,Colourless,synergistic skin lightening effect,> 300 mg/mL,> 500 mg/mL,< 0.2 mg/mL
"C=Cc1ccc(O)c(OC)c1 [Vinylguaiacol, 4-Vinyl-2-methoxyphenol]",3,6,10,1,0,0,0,,Cloves,Colourless,,> 2 mg/mL,> 100 mg/mL,> 50 mg/mL
